Values quoted from earlier work, collected in publication PMC11672368 (Therapeutic Advances in Medical Oncology, 2024).

Columns and labels:
[1] = depot injection
[2] = system: serum testosterone

Substance: Triptorelin
- elimination half-life (t1/2): 5 h

Substance: degarelix
- incidence of injection-site reactions [1]: ~40%

Substance: leuprolide acetate
- achievement rate of serum total testosterone 0.2 ng/mL [2]: 57%
